The record followed here is US20100305315A1, “Process for the preparation of 2-(primary/secondary amino)hydrocarbyl)-carbamoyl-7-oxo-2,6-diaza-bicyclo [3.2.0.]heptane-6-sulfonic acid derivatives” (Basilea Pharmaceutica AG, priority 2007, published 2010).

This data set can be described thus: physchem. As to conditions: 25 °C, organic solvent or mixture.

In general, solubility refers to the concentration that dissolves in the medium under given conditions.

As to `O=C1[C@H]2NCC[C@H]2N1S(=O)(=O)O` [(1S,5R)-7-oxo-2,6-diaza-bicyclo[3.2.0]heptane-6-sulfonic acid], the solubility is at most 200 mg/mL.
